“Also recorded” adds a separate entry of the source. Read-outs that look alike come from different tables or passages of the source.
Legend:
[1] = Single ascending oral dose pharmacokinetics (part 1, plasma and urine, fasted); type: in vivo, human; details: for Feu0-144: urine; for AUC(0-inf) / AUC(0-t) / Cmax / MRT / Vd/F / half-life / Tmax / CL renal: human, oral; for AUC(0-inf) / AUC(0-t) / Cmax / MRT / Vd/F / half-life / Tmax: plasma; for Vd/F: read-out: Vz/F; for CL renal: urine and plasma
[2] = Effect of food on pharmacokinetics (cohort C, 250 mg crossover); type: in vivo, human; details: for Tmax / AUC(0-inf) / AUC(0-t) / Cmax / half-life: human, plasma, oral, 250 mg; for AUC(0-inf): read-out: AUC0-inf, GLS mean; for AUC(0-t): read-out: AUC0-last, GLS mean; for Cmax: read-out: Cmax, GLS mean; for half-life: read-out: t1/2,z, GLS mean (converted)
Experimental: In part 1, Japanese participants were randomized to receive placebo or single dose of ensitrelvir (20, 70, 250, 500, 1,000, and 2,000 mg given to cohorts A, B, C, D, E, and J, respectively), suspended in 0.5% methylcellulose, in the fasted state. Additionally, in cohort C, the effect of food on the pharmacokinetics of ensitrelvir was investigated in a 2-group, 2-period crossover design by administering placebo or ensitrelvir (250 mg) in the fasted or fed (high-fat/high-calorie) state. In part 2, Japanese participants were randomized to receive placebo or multiple doses of ensitrelvir, suspended in 0.5% methylcellulose. The multiple-dose regimens were as follows: once-daily doses of ensitrelvir 375 mg on day 1 and 125 mg on days 2 to 5 (cohort F), or 750 mg on day 1 and 250 mg on days 2 to 6 (cohort G) in the fasted state. White participants were randomized to receive placebo or multiple doses of ensitrelvir. The multiple-dose regimens were as follows: once-daily doses of ensitrelvir 375 mg on day 1 and 125 mg on days 2 to 5 (cohort H). Each cohort included 11 participants. In cohort G, the effect of ensitrelvir on the pharmacokinetics of midazolam (syrup) was evaluated in an open label self-controlled crossover design. Midazolam 2 mg alone was administered 2 days prior to initiating ensitrelvir administration (on day −2) and midazolam was coadministered on day 6 with placebo or ensitrelvir in the fasted state to participants following once-daily doses for 5 days of placebo (days 1 to 5) or ensitrelvir (750 mg on day 1 and 250 mg on days 2–5).
Blood and urine samples were collected and analyzed at several time points to determine the concentration of ensitrelvir and midazolam. For single-dose administration, blood samples were collected predose (0 h) and 0.5, 1, 1.5, 2, 2.5, 3, 4, 6, 8, 12, 24, 36, 48, 60, 72, 96, 120, and 144 h postdose on day 1 at 20 mg (cohort A); predose (0 h) and 0.5, 1, 1.5, 2, 2.5, 3, 4, 6, 8, 12, 24, 36, 48, 60, 72, 96, 120, 144, 192, and 336 h postdose on day 1 at 70, 500, 1,000, and 2,000 mg (cohorts B, D, E, and J); and predose (0 h) and 0.5, 1, 1.5, 2, 2.5, 3, 4, 6, 8, 12, 24, 36, 48, 60, 72, 96, 120, and 144, 192, and 336 h postdose on days 1 and 15 at 250 mg (cohort C). Urine samples were collected at 0 to 24, 24 to 48, 48 to 72, 72 to 96, 96 to 120, and 120 to 144 h postdose on day 1 at 20, 70, 500, and 1,000 mg (cohorts A, B, D, and E); and 0 to 24, 24 to 48, 48 to 72, 72 to 96, 96 to 120, and 120 to 144 h postdose on days 1 and 15 at 250 mg (cohort C). For multiple-dose administration, blood samples were collected predose (0 h) and 0.5, 1, 1.5, 2, 2.5, 3, 4, 6, 8, and 12 h postdose on day 1; predose (0 h) on days 2 to 4; and predose (0 h) and 0.5, 1, 1.5, 2, 2.5, 3, 4, 6, 8, 12, and 24 h postdose on day 5 to evaluate the pharmacokinetics of ensitrelvir. Blood samples were also collected predose (0 h) and 0.5, 1, 2, 3, 4, 5, 6, 8, 12, and 24 h postdose on […] to evaluate the pharmacokinetics of midazolam.
Pharmacokinetic parameters were estimated based on the plasma concentration time data for ensitrelvir and midazolam by noncompartmental analysis (Phoenix WinNonlin version 6.2.1, Certara USA Inc., Princeton, NJ, USA). Dose proportionality assessments included the Cmax, area under the plasma concentration-time curve (AUC0-last, AUC0-inf, and AUC0-τ), and dose independency included t1/2,z, terminal elimination rate constant (λz), MRT, CL/F, and Vz/F. Urine pharmacokinetic parameters for ensitrelvir were calculated based on the urine concentrations of ensitrelvir and urine volume with noncompartmental analysis. Feu0-144 was calculated after single-dose administration. Additionally, renal clearance (CLR) was calculated using the cumulative amount of the drug excreted in urine and AUC in plasma for ensitrelvir. […]

[3] = cohort/dose A/20 mg, single dose, geometric mean (%CV)
[4] = cohort/dose B/70 mg, single dose, geometric mean (%CV)
[5] = cohort/dose C/250 mg, single dose, geometric mean (%CV)
[6] = cohort/dose D/500 mg, single dose, geometric mean (%CV)
[7] = cohort/dose E/1000 mg, single dose, geometric mean (%CV)
[8] = cohort/dose J/2000 mg, single dose, geometric mean (%CV)
[9] = Cohort C/250 mg single dose, Fasted
[10] = Cohort C/250 mg single dose, Fed

In the case of `Cn1cnc(Cn2c(=O)[nH]/c(=N\c3cc4cn(C)nc4cc3Cl)n(Cc3cc(F)c(F)cc3F)c2=O)n1` [Ensitrelvir, ensitrelvir fumaric acid], the CL/F [1, 3] is reported as 0.219 (24.3) L/h, the Feu0-144 [1, 3] is reported as 12.9 (14.6) % and the CL/F [1, 4] is reported as 0.241 (15.7) L/h. For the same compound, the Feu0-144 [1, 4] was 14.7 (27.4) %, the CL/F [1, 5] was 0.274 (16.2) L/h and the Feu0-144 [1, 5] was 16.0 (16.6) %. The CL/F [1, 6] was 0.252 (16.1) L/h, the Feu0-144 [1, 6] was 21.8 (15.4) % and the CL/F [1, 7] was 0.297 (35.5) L/h. The Feu0-144 [1, 7] was 19.4 (29.5) %, the CL/F [1, 8] was 0.315 (22.2) L/h and the AUC(0-inf) [1, 3] was 91.4 µg·h/mL. It also gave an AUC(0-t) [1, 3] of 82 µg·h/mL, a Cmax [1, 3] of 1700 ng/mL and an MRT [1, 3] of 61.8 h. For the same compound, the Vd/F [1, 3] was 13.5 L, the half-life ([1]; cohort/dose A/20 mg, single dose, geometric mean (%CV), read-out: t1/2,z (converted)) was 42.6 h and the Tmax ([1]; cohort/dose A/20 mg, single dose, median (min, max), read-out: Tmax) was 2.5 h. It also gave an AUC(0-inf) [1, 4] of 291 µg·h/mL, an AUC(0-t) [1, 4] of 289 µg·h/mL and a Cmax [1, 4] of 5200 ng/mL. For the same compound, the MRT [1, 4] was 67.3 h, the Vd/F [1, 4] was 15.9 L and the half-life ([1]; cohort/dose B/70 mg, single dose, geometric mean (%CV), read-out: t1/2,z (converted)) was 45.7 h. For the same compound, the Tmax ([1]; cohort/dose B/70 mg, single dose, median (min, max), read-out: Tmax) was 1.5 h, the AUC(0-inf) [1, 5] was 914 µg·h/mL and the AUC(0-t) [1, 5] was 907 µg·h/mL. It also gave a Cmax [1, 5] of 15200 ng/mL, an MRT [1, 5] of 73.4 h and a Vd/F [1, 5] of 17 L. It also gave a half-life ([1]; cohort/dose C/250 mg, single dose, geometric mean (%CV), read-out: t1/2,z (converted)) of 43.1 h, a Tmax ([1]; cohort/dose C/250 mg, single dose, median (min, max), read-out: Tmax) of 2.5 h and an AUC(0-inf) [1, 6] of 1990 µg·h/mL. The AUC(0-t) [1, 6] was 1980 µg·h/mL, the Cmax [1, 6] was 32600 ng/mL and the MRT [1, 6] was 68.2 h. For the same compound, the Vd/F [1, 6] was 15.3 L, the half-life ([1]; cohort/dose D/500 mg, single dose, geometric mean (%CV), read-out: t1/2,z (converted)) was 42.2 h and the Tmax ([1]; cohort/dose D/500 mg, single dose, median (min, max), read-out: Tmax) was 2 h. For the same compound, the AUC(0-inf) [1, 7] was 3370 µg·h/mL, the AUC(0-t) [1, 7] was 3340 µg·h/mL and the Cmax [1, 7] was 63800 ng/mL. It also gave an MRT [1, 7] of 70.3 h, a Vd/F [1, 7] of 20.6 L and a half-life ([1]; cohort/dose E/1000 mg, single dose, geometric mean (%CV), read-out: t1/2,z (converted)) of 48.1 h. For the same compound, the Tmax ([1]; cohort/dose E/1000 mg, single dose, median (min, max), read-out: Tmax) was 2.75 h, the AUC(0-inf) [1, 8] was 6350 µg·h/mL and the AUC(0-t) [1, 8] was 6310 µg·h/mL. The Cmax [1, 8] was 96900 ng/mL, the MRT [1, 8] was 67.4 h and the Vd/F [1, 8] was 19.6 L. The half-life ([1]; cohort/dose J/2000 mg, single dose, geometric mean (%CV), read-out: t1/2,z (converted)) was 43.1 h, the Tmax ([1]; cohort/dose J/2000 mg, single dose, median (min, max), read-out: Tmax) was 4 h and the half-life ([1]; single dose 20 to 2,000 mg, range across dose groups, read-out: geometric mean terminal elimination half-life (t1/2,z)) was 42.2 to 48.1 h. The Tmax ([1]; single dose 20 to 2,000 mg, range across dose groups, read-out: median time to maximum plasma concentration (Tmax)) was 1.5 to 4 h, the CL renal [1, 3] was 0.523 mL/min and the CL renal [1, 4] was 0.668 mL/min. The CL renal [1, 5] was 0.845 mL/min, the CL renal [1, 6] was 1.04 mL/min and the CL renal [1, 7] was 1.11 mL/min. For the same compound, the “reduction of Cmax by food intake” value ([2]; 250 mg single dose, fed vs fasted) was 15%, the “effect of food intake on AUC” value ([2]; 250 mg single dose, high-fat/high-calorie meal) was “did not impact; also recorded: did not affect” and the “AUC0-inf, GLS mean (90% CI) ratio (fed/fasted)” value ([2]; Cohort C/250 mg single dose) was 1.0460 (1.0047/1.0891). The “AUC0-last, GLS mean (90% CI) ratio (fed/fasted)” value ([2]; Cohort C/250 mg single dose) was 1.0470 (1.0061/1.0895), the “Cmax, GLS mean (90% CI) ratio (fed/fasted)” value ([2]; Cohort C/250 mg single dose) was 0.8508 (0.7507/0.9644) and the “t1/2,z, GLS mean (90% CI) ratio (fed/fasted)” value ([2]; Cohort C/250 mg single dose) was 0.9385 (0.8893/0.9905). For the same compound, the Tmax ([2]; 250 mg single dose, fasted state) was 2.5 h, the Tmax ([2]; 250 mg single dose, fed state) was 8 h and the AUC(0-inf) [2, 9] was 914 µg·h/mL. For the same compound, the AUC(0-t) [2, 9] was 907 µg·h/mL, the Cmax [2, 9] was 15200 ng/mL and the half-life [2, 9] was 43.1 h. It also gave an AUC(0-inf) [2, 10] of 956 µg·h/mL, an AUC(0-t) [2, 10] of 949 µg·h/mL and a Cmax [2, 10] of 13000 ng/mL. It also gave a half-life [2, 10] of 40.5 h.

Source: paper PMC9578392, “Safety, Tolerability, and Pharmacokinetics of the Novel Antiviral Agent Ensitrelvir Fumaric Acid, a SARS-CoV-2 3CL Protease Inhibitor, in Healthy Adults” (Antimicrobial Agents and Chemotherapy, 2022)
